Laboratory results published in PMC9144480 (Pharmaceuticals, 2022).
Like-named read-outs stand apart in the source and are kept apart here.

Assays:
[1] = system: SARS-CoV-2 spike protein pseudotyped VSV-ΔG; experiment: microbe, parasite or virus in culture; type: cell-based
[2] = system: pseudovirus bearing SARS-CoV-2 S protein, delta (B.1.617.2) variant; experiment: microbe, parasite or virus in culture; type: cell-based; details: HEK-293T, read-out: IC50, inhibition of cell entry of pseudovirus (delta var.)
[3] = Severe acute respiratory syndrome coronavirus 2, Vero C1008, read-out: IC50, inhibition of VSV-ΔG pseudovirus entry

| SMILES | IC50 [1, 3] | IC50 ([1]; read-out: IC50, inhibition of VSV-ΔG pseudovirus entry) | IC50 [2] |
| --- | --- | --- | --- |
| CN(C)c1ccc2nc3ccc(=[N+](C)C)cc-3sc2c1 [MeBlu, methylene blue] | 2500 nM | 2460 nM | 4.7 µM |
| Nc1c(/N=N/c2ccc([N+](=O)[O-])cc2)c(S(=O)(=O)O)cc2cc(S(=O)(=O)O)c(/N=N/c3ccccc3)c(O)c12 [NBlBk, naphthol blue black] |  |  | 388 µM |
| O=S(=O)(O)c1ccc(N=Nc2c(O)ccc3cc(S(=O)(=O)O)ccc23)cc1 [SY(FD&C#6), sunset yellow FCF] | > 250000 nM |  | > 500 µM |
| CCN(CCO)CCCC(C)Nc1ccnc2cc(Cl)ccc12 (stereo not shown) [HCQ, hydroxychloroquine] |  |  | 75.1 µM |
